According to patent US20070016983A1, “Controlling gene expressions in plastids” (Icon Genetics AG, priority 2003, published 2007):

Test system: lac repressor/operator system controlling plastome-encoded smGFP
Test: Chemical induction of plastid GFP transgene expression by spraying a transplastomic tobacco plant with IPTG (Western blot)
Format: in vivo, Nicotiana tabacum
Procedure: FIG. 2: Immunological detection of GFP expression after induction with IPTG. • A) Plastid transformant 557-1 containing the smGFP gene under the control of the 16S-lac3 promoter and the lacl gene (transformation vector plCF1050-1), was analyzed for its GFP content by Western blotting. For the uninduced sample (−), a young leaf of a ca. 7 cm high plant was removed before spraying the plant with a 1 mM IPTG solution. For the induced sample (+), the next youngest leaf was cut four days after spraying. The amount of total soluble protein loaded on the gel is given on the top of the lanes. • B) Lower amounts of protein of the induced sample shown in A were loaded on the gel in order to allow quantification in comparison with the uninduced sample. In addition, protein from further leaves that were cut seven days after spraying was loaded. Leaf a was the next youngest leaf, leaf b an older leaf. Compared with a GFP standard, the amount of GFP in the first lane is in the range of 15 to 20 ng.
Tobacco seeds (Nicotiana tabacum cv. petite havana) were surface sterilized (1 min in 70% ethanol, 10 min in 5% Dimanin C, Bayer, Leverkusenr, Germany), washed 3 times for 10 min in sterile H2O and put on SCN-medium (Dovzhenko et al., 1998). Plants were grown at 25° C. in a 16 h light/8 h dark cycle (0.5-1 W/m^2 Osram L85W/25 Universal-White fluorescent lamps). Protoplast isolation was made according to Dovzhenko et al. (1998). Transformation using polyethyleneglycol (PEG) was performed as described in Koop et al. (1996), and alginate embedding according to Dovzhenko et al. (1998). After one week of culture in liquid medium, cells were transferred to agar-solidified RMOP-medium (Svab et al., 1990) containing 25 μg/ml kanamycin to select for transformants. Green regenerates were retrieved after […] and transferred to individual plates. In order to achieve homoplastomy, the individual lines were subjected to repeated cycles of shoot generation by cutting small leaf pieces which form new regenerates on RMOP-medium with 15 μg/ml kanamycin. Rooting of selected regenerates was done on SCN-medium containing 15 μg/ml spectinomycin. […]
A transplastomic plant generated with plCF10501 was grown on SCN-medium to a height of ca. 7 cm. […] After four and seven days, respectively, the next youngest leaf was cut off and also analyzed. […] Protein quantification was made according to the Bradford method with RotiQuant solution. Proteins were separated on a 15% polyacrylamide gel and transferred to nitrocellulose membrane, and GFP was detected immunologically using the ECL method (primary antibody directed against a recombinant protein corresponding to GFP from A. victoria; Santa Cruz Biotechnology).

CC(C)S[C@@H]1O[C@H](CO)[C@H](O)[C@H](O)[C@H]1O [IPTG, isopropyl-D-thiogalactopyranoside]
amount of GFP in the first lane compared with a GFP standard (FIG. 2B, first lane, Western blot of plastid transformant 557-1 sprayed with 1 mM IPTG): 15 to 20 ng
green fluorescence of leaves (after spraying with 1 mM IPTG, leaves irradiated with ultraviolet/blue light): increase in green fluorescence
amount of GFP in the leaves (plant sprayed with ca. 1 ml of 1 mM IPTG, leaf cut seven days after spraying, Western blot, FIG. 2): a further increase could be observed
increase of the amount of GFP in the leaves (plant sprayed with ca. 1 ml of 1 mM IPTG, next youngest leaf cut four days after spraying vs leaf cut before spraying, Western blot, FIG. 2): about 10 fold
